In patent US10925890B2, “Use of dextran sulfate” (TX MEDIC AB, priority 2014, dated 2021):
“Also recorded” adds a separate entry of the source.

Key:
[1] = system: rat model of myocardial infarction; experiment: SMA vascular density count, rat myocardial infarction model; type: in vivo; settings: group 2M, 15 mg/kg 3 times/week for 3 weeks; 35 days after MI induction; infarct region
Experimental: (§1) On the day of surgery the animals were anesthetized with a combination of 90 mg/kg ketamine and 10 mg/kg xylazine. In order to induce MI, under anesthesia and analgesia, the rat chest was opened by left thoracotomy, the pericardium was removed and the proximal left coronary artery was permanently occluyded with an intramural stitch (Circulation 117, 1388-1396 (2008)). Two hours post surgery, each animal in all treated groups were injected s.c. with dextran sulfate or saline vehicle according to Table 11.
For the purpose of MI size identification, Masson's Trichrome Staining was used. Nine hearts of a treated (2M) group and eight of the untreated (1M) group were sectioned transversely into five sections that were imbedded in paraffin. Five paraffin sections at 5 μm were performed on a Lika microtome. All sections were stained according to standard Masson's trichrome protocol. The sections were visualized in a computer-imaging system and infarct size was marked and calculated using the ImageJ program. Infarct size was expressed as percentage of infarct area (unstained) versus the total left ventricle area. For each animal, five serial sections including one containing the ligature were analyzed and the mean value of all sections for each heart was calculated. Immunohistobchemistry marker (Smooth Muscle Actin—SMA) was used for evaluating the vascular density count. […]

[2] = system: rat model of myocardial infarction; experiment: Infarct size (Masson's trichrome), rat myocardial infarction model; type: in vivo; settings: 35 days after MI induction
Experimental: The myocardial infarction model in rat involved ligations of the left coronary artery permanently with an intramural stitch. The surgery caused obstruction of the blood flow and subsequently to severe ischemic damage and cardiac walls infarct.
as §1
On day 36 after MI induction, the rats were sacrificed by CO2 inhalation and the hearts were harvested and fixed in 4% buffered Formalin solution. […]
For the purpose of MI size identification, Masson's Trichrome Staining was used. […] The sections were visualized in a computer-imaging system and infarct size was marked and calculated using the ImageJ program. Infarct size was expressed as percentage of infarct area (unstained) versus the total left ventricle area. For each animal, five serial sections including one containing the ligature were analyzed and the mean value of all sections for each heart was calculated. […]

[3] = system: Rat Hind-Limb Ischemia Model; experiment: Blood flow by non-contact LASER Doppler, rat hind-limb ischemia; type: in vivo; settings: for Mean change in blood flow from Day 0 to Day 28: vehicle 14.8
Experimental: (§2) The femoral artery and vein were ligated twice with 4-0 silk thread and transected between the ligatures. The wound was closed with 3-0 silk thread and the rats were allowed to recover.
(§3) Animals in group 4M and 5M were injected s.c. once on Day 8, see Table 12.
Blood flows in legs from both sides were measured with a non-contact LASER Doppler before surgery on Day −1 and on Days: 1, 7, 14, 21 and 28 post operation. Blood flow measurements were expressed as the ratio of the flow in the ischemic limb to that in the normal limb.

[4] = system: Critical Hind-Limb Ischemia Mouse Model; experiment: Blood flow by non-contact laser Doppler, mouse hind-limb ischemia; type: in vivo; settings: for folds increase in the mean blood flow due to dextran sulfate treatment: vs vehicle control 1M; for Mean change in blood flow day 35 vs. day 1: operated limb, vehicle 19.5
Experimental: Blood flows in legs from both sides were measured with a non-contact laser Doppler before surgery on day −1 and on days: 1, 7, 14, 21, 28 and 35 post operation. Blood flow measurements was expressed as the ratio of the flow in the ischemic limb to that in the normal limb.

[5] = system: Critical Hind-Limb Ischemia Mouse Model; experiment: Macroscopic evaluation of ischemic severity (necrosis grades), mouse hind-limb ischemia
Description: On the day of surgery anesthesia was induced by 1.5 to 3.0% isoflurane, 1.5% N2O and 0.5% O2. Under anesthesia, the mice were placed with ventral side up. A 0.5-1.0 cm incision was made in the skin in the inguinal area. The femoral artery was ligated proximally just after the distal part of the iliac artery and distally after its bifurcation with profound femoral artery with 6-0 silk thread, transected and excised between two ligatures. The wound was closed with 4-0 silk thread and the mice were allowed to recover.
On day 8, week 2 post-surgery, each animal in groups 2M and 3M were injected dextran sulfate solution s.c. three times a week.

[6] = system: Rat Hind-Limb Ischemia Model; experiment: Ischemic severity (necrosis grades), rat hind-limb ischemia; type: in vivo; settings: all groups incl. vehicle; Day 7 up to Day 28
Experimental: as §2, §3

tMCAO rat-stroke model = experiment: Cerebral blood flow assessment (Flow-R Laser Doppler), tMCAO rat; type: in vivo; settings: day 29
Experimental: Transient middle cerebral artery occlusion was performed according to the method previously described in Stroke 29, 2162-2170 (1998). The right common carotid artery (CCA) was exposed through a midline neck incision and carefully dissected free from surrounding nerves and fascia—from its bifurcation to the base of the skull. The occipital artery branches of the external carotid artery (ECA) were then isolated, and these branches were dissected and coagulated. The ECA was dissected further distally and coagulated along with the terminal lingual and maxillary artery branches, which was then divided. The internal carotid artery (ICA) was isolated and carefully separated from the adjacent vagus nerve, and the pterygopalatine artery was ligated close to its origin with a 5-0 nylon suture (SMI, Belgium). Next a 4-0 silk suture was tied loosely around the mobilized ECA stump, and a 4 cm length of 4-0 monofilament nylon suture (the tip of the suture was blunted by using a flame, and the suture was coated with polylysine, prior to insertion) was inserted through the proximal ECA into the ICA and thence into the circle of Willis, effectively occluding the MCA. […]
Evaluation of the blood flow on the brain cortex and vessel constriction was carried out using Flow-R Laser Doppler system, in which intracranial blood flow and vessels diameter (constriction/dilatation) was monitored. […]

[7] = system: Rat Hind-Limb Ischemia Model; experiment: In vivo assessment of limb function, rat hind-limb ischemia; settings: for Incidence of limb function score 0 / Incidence of limb function score 1 / Incidence of limb function score 2 / Incidence of limb function score 3: Day 28
Experimental: as §2, §3
Semi-quantitative assessment of impaired use of the ischemic limb was performed once a week post-surgery using the scale presented in Table 7. Scoring was performed by personnel blinded to the treatment.

[8] = group 4M, 30 mg/kg s.c. administered once
[9] = group 5M, 3 mg/kg s.c. administered once
[10] = groups 2M, 3M, 4M and 5M vs 1M, Day 14 through Day 28
[11] = day 7 (before treatment start day 8), group 2M, 10 mg/kg 3 times/week
[12] = day 7 (before treatment start day 8), group 3M, 30 mg/kg 3 times/week
[13] = day 7 (before treatment start day 8), group 4M, 30 mg/kg 1 time/week
[14] = group 2M, 30 mg/kg s.c. 3 times a week
[15] = group 3M, 30 mg/kg (as printed in Table 12) s.c. 3 times a week

Dextran sulfate
SMA capillary density compared to vehicle control [1]: higher SMA capillary density; also recorded: trend of increase in capillaries density | Infarct size / infarct volume, treatment group 2M vs control group 1M ([2]; 15 mg/kg s.c. 3 times a week for 3 weeks): significant difference; also recorded: significantly decreased the infarct volume | Average infarct size compared to untreated control group ([2]; all treatment groups (15 or 3 mg/kg s.c.)): smaller average infarct size | Mean change in blood flow from Day 0 to Day 28 ([3]; group 2M, 30 mg/kg s.c. 3 times a week starting on Day 8): 47.7% | Mean change in blood flow from Day 0 to Day 28 ([3]; group 3M, 30 mg/kg (as printed in Table 12) s.c. 3 times a week starting on Day 8): 39.1% | Mean change in blood flow from Day 0 to Day 28 [3, 8]: 44.0% | Mean change in blood flow from Day 0 to Day 28 [3, 9]: 41.0% | Ratio of blood flow HLI-injured versus non-injured leg, treated groups vs control [3, 10]: statistically significant differences | Blood perfusion compared to the vehicle treated control ([4]; 30 mg/kg s.c. three times a week or once a week): significantly restored blood perfusion | folds increase in the mean blood flow due to dextran sulfate treatment ([4]; group 2M, 10 mg/kg 3 times/week): 2.2 folds | Mean change in blood flow day 35 vs. day 1 ([4]; group 2M, 10 mg/kg s.c. 3 times/week): 46.7 units | folds increase in the mean blood flow due to dextran sulfate treatment ([4]; group 3M, 30 mg/kg 3 times/week): 3.0 folds | Mean change in blood flow day 35 vs. day 1 ([4]; group 3M, 30 mg/kg s.c. 3 times/week): 59.3 units | folds increase in the mean blood flow due to dextran sulfate treatment ([4]; group 4M, 30 mg/kg 1 time/week): 2.8 folds | Mean change in blood flow day 35 vs. day 1 ([4]; group 4M, 30 mg/kg s.c. 1 time/week): 51.1 units | Incidence of mice with limb amputation [5, 11]: 0.0% | Incidence of mice with toe necrosis [5, 11]: 0.0% | Incidence of mice with limb amputation [5, 12]: 0.0% | Incidence of mice with toe necrosis [5, 12]: 0.0% | Incidence of mice with limb amputation [5, 13]: 0.0% | Incidence of mice with toe necrosis [5, 13]: 0.0% | Incidence of mice with limb amputation ([5]; day 35, group 2M, 10 mg/kg s.c. 3 times/week, vehicle 15.4): 0.0% | Incidence of mice with toe necrosis ([5]; day 35, group 2M, 10 mg/kg s.c. 3 times/week, vehicle 23.1): 21.4% | Incidence of mice with limb amputation ([5]; day 35, group 3M, 30 mg/kg s.c. 3 times/week, vehicle 15.4): 0.0% | Incidence of mice with toe necrosis ([5]; day 35, group 3M, 30 mg/kg s.c. 3 times/week, vehicle 23.1): 14.3% | Incidence of mice with limb amputation ([5]; day 35, group 4M, 30 mg/kg s.c. 1 time/week, vehicle 15.4): 7.1% | Toe necrosis or foot amputation [6]: no toe necrosis or foot amputation was found | Vessels diameter ratio versus control (tMCAO rat-stroke model): increased | Cerebral blood perfusion rate versus control vehicle-treated group (tMCAO rat-stroke model; groups 2M and 3M, damaged hemisphere): Statistically significant improvement | Incidence of limb function score 0 [7, 14]: 100% | Incidence of limb function score 1 [7, 14]: 0% | Incidence of limb function score 2 [7, 14]: 0% | Incidence of limb function score 3 [7, 14]: 0% | Incidence of limb function score 0 [7, 15]: 88% | Incidence of limb function score 1 [7, 15]: 12% | Incidence of limb function score 2 [7, 15]: 0% | Incidence of limb function score 3 [7, 15]: 0% | Incidence of limb function score 0 [7, 8]: 100% | Incidence of limb function score 1 [7, 8]: 0% | Incidence of limb function score 2 [7, 8]: 0% | Incidence of limb function score 3 [7, 8]: 0% | Incidence of limb function score 0 [7, 9]: 94% | Incidence of limb function score 1 [7, 9]: 6% | Incidence of limb function score 2 [7, 9]: 0% | Incidence of limb function score 3 [7, 9]: 0% | Limb function score, treated groups vs control [7, 10]: statistically significant differences
